Columns and labels:
Assay type in all cases: cell-based
human TLR7 = biological target: T1, human TLR7 (Homo sapiens, UniProt Q9NYK1); assay: TLR7 inhibition reporter assay (HEK-Blue cells, SEAP reporter, gardiquimod stimulation); conditions: HEK-Blue cells overexpressing human TLR7, SEAP reporter, gardiquimod 7.5 μM
T1 construct: host or cells: HEK-Blue cells
T1 sequence (Q9NYK1 27-1049): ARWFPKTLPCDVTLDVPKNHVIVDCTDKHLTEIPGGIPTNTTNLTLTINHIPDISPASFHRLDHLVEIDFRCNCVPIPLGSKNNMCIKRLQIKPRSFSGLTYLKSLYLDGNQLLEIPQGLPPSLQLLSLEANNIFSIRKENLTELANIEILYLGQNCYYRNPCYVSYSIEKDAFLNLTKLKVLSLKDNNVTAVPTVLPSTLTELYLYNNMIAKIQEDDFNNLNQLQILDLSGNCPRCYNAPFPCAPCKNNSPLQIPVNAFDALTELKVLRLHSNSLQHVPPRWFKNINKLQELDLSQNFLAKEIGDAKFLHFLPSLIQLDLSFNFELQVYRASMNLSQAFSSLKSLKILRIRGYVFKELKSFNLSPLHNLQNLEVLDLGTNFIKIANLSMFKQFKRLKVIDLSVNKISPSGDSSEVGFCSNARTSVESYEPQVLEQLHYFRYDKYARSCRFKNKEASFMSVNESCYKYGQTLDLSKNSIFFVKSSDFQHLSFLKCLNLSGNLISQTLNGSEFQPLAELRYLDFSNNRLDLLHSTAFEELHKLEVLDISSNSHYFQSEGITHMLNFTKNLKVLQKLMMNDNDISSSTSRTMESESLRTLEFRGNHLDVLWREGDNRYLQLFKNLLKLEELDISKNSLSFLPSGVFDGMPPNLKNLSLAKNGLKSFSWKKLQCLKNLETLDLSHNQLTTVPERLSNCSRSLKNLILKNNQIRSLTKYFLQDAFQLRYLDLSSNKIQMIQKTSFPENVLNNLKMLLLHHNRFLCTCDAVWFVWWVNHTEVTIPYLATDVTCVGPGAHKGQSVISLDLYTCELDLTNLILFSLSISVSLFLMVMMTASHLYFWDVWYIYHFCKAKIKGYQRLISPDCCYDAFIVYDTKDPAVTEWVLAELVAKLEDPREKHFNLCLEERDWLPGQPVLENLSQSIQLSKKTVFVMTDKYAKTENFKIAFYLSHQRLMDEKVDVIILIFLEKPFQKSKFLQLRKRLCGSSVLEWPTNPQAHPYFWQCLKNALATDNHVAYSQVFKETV
Procedure: (§1) TLR7/8/9 Inhibition Reporter Assays
(§2) HEK-Blue™-cells (Invivogen) overexpressing human TLR7, TLR8 or TLR9 receptors were used for screening inhibitors of these receptors using an inducible SEAP (secreted embryonic alkaline phosphatase) reporter gene under the control of the IFN-β minimal promoter fused to five NF-κB and AP-1-binding sites. Briefly, cells are seeded into Greiner 384 well plates (15000 cells per well for TLR7, 20,000 for TLR8 and 25,000 for TLR9) and then treated with test compounds in DMSO to yield a final dose response concentration range of 0.05 nM-50 μM. After a 30 minute compound pre-treatment at room temperature, the cells are then stimulated with a TLR7 ligand (gardiquimod at a final concentration of 7.5 μM), TLR8 ligand (R848 at a final concentration of 15.9 μM) or TLR9 ligand (ODN2006 at a final concentration of 5 nM) to activate NF-κB and AP-1 which induce the production of SLA After a 22 hour incubation at 37° C., […], SEAP levels are determined with the addition of HEK-Blue™ Detection reagent (Invivogen), a cell culture medium that allows for detection of SLAP, according to manufacturer's specifications. The percent inhibition is determined as the % reduction in the HEK-Blue signal present in wells treated with agonist plus DMSO alone compared to wells treated with a known inhibitor.

human TLR9 = biological target: T2, human TLR9 (Homo sapiens, UniProt Q9NR96); assay: TLR9 inhibition reporter assay (HEK-Blue cells, SEAP reporter, ODN2006 stimulation); conditions: HEK-Blue cells overexpressing human TLR9, SEAP reporter, ODN2006 5 nM
T2 construct: host or cells: HEK-Blue cells
T2 sequence (Q9NR96 26-1032): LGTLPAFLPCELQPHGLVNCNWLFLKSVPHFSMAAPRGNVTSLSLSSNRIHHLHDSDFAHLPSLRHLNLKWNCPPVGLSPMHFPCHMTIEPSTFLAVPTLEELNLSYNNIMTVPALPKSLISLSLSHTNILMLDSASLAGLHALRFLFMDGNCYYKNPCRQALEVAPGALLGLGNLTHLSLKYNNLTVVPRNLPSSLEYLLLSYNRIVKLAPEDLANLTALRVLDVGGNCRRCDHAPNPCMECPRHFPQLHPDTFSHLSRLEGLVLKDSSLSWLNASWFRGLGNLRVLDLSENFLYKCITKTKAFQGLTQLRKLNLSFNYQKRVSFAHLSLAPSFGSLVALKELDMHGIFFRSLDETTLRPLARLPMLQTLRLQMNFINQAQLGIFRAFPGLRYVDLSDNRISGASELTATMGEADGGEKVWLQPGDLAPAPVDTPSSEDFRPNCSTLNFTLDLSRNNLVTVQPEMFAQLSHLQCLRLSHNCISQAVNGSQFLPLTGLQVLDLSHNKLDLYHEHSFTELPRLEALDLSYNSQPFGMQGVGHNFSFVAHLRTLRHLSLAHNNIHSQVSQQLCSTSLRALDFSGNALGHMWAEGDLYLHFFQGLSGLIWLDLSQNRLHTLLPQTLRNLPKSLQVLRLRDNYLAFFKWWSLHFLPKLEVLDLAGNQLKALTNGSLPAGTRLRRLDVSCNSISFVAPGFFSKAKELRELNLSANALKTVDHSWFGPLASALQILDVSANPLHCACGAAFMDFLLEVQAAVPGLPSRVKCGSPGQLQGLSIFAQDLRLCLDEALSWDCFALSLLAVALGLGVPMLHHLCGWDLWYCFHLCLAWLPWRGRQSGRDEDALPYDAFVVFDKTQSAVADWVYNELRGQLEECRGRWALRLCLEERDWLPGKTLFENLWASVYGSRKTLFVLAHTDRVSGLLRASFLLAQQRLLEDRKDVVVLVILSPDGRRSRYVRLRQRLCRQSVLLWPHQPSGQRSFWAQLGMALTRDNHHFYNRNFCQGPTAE
Procedure: as §1, §2

human TLR8 = biological target: T3, human TLR8 (Homo sapiens, UniProt Q9NR97); assay: TLR8 inhibition reporter assay (HEK-Blue cells, SEAP reporter, R848 stimulation); conditions: HEK-Blue cells overexpressing human TLR8, SEAP reporter, R848 15.9 μM
T3 construct: host or cells: HEK-Blue cells
T3 sequence (Q9NR97 27-1041): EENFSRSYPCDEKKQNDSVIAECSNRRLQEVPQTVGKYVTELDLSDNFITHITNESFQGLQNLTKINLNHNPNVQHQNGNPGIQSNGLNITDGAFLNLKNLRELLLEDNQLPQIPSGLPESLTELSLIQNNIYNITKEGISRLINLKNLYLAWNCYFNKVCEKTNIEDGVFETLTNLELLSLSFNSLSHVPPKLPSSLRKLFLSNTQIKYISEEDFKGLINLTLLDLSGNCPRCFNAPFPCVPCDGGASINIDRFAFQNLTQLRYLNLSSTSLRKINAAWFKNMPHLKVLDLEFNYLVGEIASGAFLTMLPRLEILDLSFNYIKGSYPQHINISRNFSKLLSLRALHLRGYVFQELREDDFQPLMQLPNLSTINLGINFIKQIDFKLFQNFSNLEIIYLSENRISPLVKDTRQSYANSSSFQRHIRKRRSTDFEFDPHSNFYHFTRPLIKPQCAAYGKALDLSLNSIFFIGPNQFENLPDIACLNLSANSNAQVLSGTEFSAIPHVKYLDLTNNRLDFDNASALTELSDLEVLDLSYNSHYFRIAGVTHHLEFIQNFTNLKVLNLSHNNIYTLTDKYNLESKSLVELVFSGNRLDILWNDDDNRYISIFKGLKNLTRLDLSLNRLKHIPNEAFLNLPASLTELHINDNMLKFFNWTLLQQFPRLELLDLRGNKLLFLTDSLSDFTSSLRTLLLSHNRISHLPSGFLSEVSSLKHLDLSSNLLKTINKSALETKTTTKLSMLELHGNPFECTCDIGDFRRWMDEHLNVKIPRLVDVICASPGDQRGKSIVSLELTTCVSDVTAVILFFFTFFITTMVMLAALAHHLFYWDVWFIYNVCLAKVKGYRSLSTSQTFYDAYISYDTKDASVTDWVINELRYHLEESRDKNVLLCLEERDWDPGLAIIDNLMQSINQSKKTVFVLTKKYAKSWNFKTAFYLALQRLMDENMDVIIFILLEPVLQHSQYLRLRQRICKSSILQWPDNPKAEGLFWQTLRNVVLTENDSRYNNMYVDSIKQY
Procedure: as §1, §2

Structure (SMILES) | IC50 (human TLR7) | IC50 (human TLR9) | IC50 (human TLR8)
Cc1cc(-c2[nH]nc(C(=O)NC3CCN(CC4CCOC4)CC3)c2C(C)C)cn2ncnc12 (stereo not drawn) [Example 72] | 1.23 nM | 7.22 µM | 4.75 nM
Cc1cc(-c2[nH]nc(C(=O)N[C@H]3CC[C@@H](NCC4CCOC4)CC3)c2C(C)C)cn2ncnc12 (stereo partly drawn) [Example 87] | 1.73 nM | 7.79 µM | 11.8 nM
CC(C)c1c(C(=O)NC2CCN(C(C)C)CC2)n[nH]c1-c1cn(C)c2ncccc12 [Example 42] | 2.99 nM | 19 µM | 6.77 nM
CNCCN1CCC(NC(=O)c2n[nH]c(-c3cc(C)c4ncnn4c3)c2C(C)C)CC1 [Example 170] | 2.38 nM | 1.76 µM | 4.65 nM
Cc1c(-c2[nH]nc(C(=O)NC3CCN(C(C)C)CC3)c2C(C)C)cn2ncnc2c1C [Example 33] | 3.86 nM | > 50 µM | 1.52 nM
Cc1cc(-c2[nH]nc(C(=O)NC3CCN(CC4CCOCC4)CC3)c2CC(F)(F)F)cn2ncnc12 [Example 204] | 1.5 nM | 17.8 µM | 0.63 nM
Cc1cc(-c2[nH]nc(C(=O)N3CC[C@@H](N(C)C)C3)c2C(C)C)cn2ncnc12 [Example 18] | 5.69 nM | 3.74 µM | 2.57 nM
Cc1cc(-c2[nH]nc(C(=O)N(C)C)c2C(C)C)cn2ncnc12 [Example 31] | 3.98 nM | > 50 µM | 3.02 nM
Cc1cc(-c2[nH]nc(C(=O)N3CC(N(C)C)C3)c2C(C)C)cn2ncnc12 [Example 21] | 6.89 nM | > 50 µM | 39 nM
Cc1cc(-c2[nH]nc(C(=O)N[C@@H]3CCCN(C(C)C)C3)c2C(C)C)cn2ncnc12 [Example 161] | 18.1 nM | 17 µM | 14.7 nM
CCC(CC)CN1CCC(NC(=O)c2n[nH]c(-c3cc(C)c4ncnn4c3)c2C(C)C)CC1 [Example 79] | 2.29 nM | 4.12 µM | 9.23 nM

The next lines start with the values.

IC50 (human TLR7) | IC50 (human TLR9) | IC50 (human TLR8) | Structure (SMILES)
28.6 nM | > 50 µM | 279 nM | Cc1cc(-c2[nH]nc(-c3cnc(N4CCNCC4)nc3)c2C(C)C)cn2ncnc12 [Example 407]
17.5 nM | 47 µM | 3.51 nM | CCCN1CCC(c2cnc(-c3n[nH]c(-c4cc(OC)c5ncnn5c4)c3C(C)C)cn2)CC1 [Example 383]
18.8 nM | > 50 µM | 1.7 nM | CCN(C)C1CCC(c2n[nH]c(-c3cc(C)c4ncnn4c3)c2C(C)C)CC1 (single isomer, unassigned) [Example 283]
2.98 nM | 6.65 µM | 0.38 nM | Cc1cc(-c2[nH]nc(C3CCC(N4CCC(N(C)C)CC4)CC3)c2C(C)C)cn2ncnc12 (single isomer, unassigned) [Example 293]
6.3 nM | 19.2 µM | 7.94 nM | COc1c(C)c(-c2[nH]nc(-c3ccc(C4CCNCC4)cn3)c2C(C)C)cn2ncnc12 [Example 346]
7.99 nM | 26.4 µM | 0.93 nM | Cc1cc(-c2[nH]nc(C3CCC(N(C)C(=O)C4CN(C(C)C)C4)CC3)c2C(C)C)cn2ncnc12 (single isomer, unassigned) [Example 303]
7.5 nM | 15.8 µM | 7.11 nM | Cc1cc(-c2[nH]nc(-c3ccc(C4CN(C(C)C)C4)cc3)c2C(C)C)cn2ncnc12 [Example 327]
154 nM | > 50 µM | 529 nM | COc1cc(-c2[nH]nc(-c3ccc(C4CCN(CC#N)CC4)cn3)c2C(C)C)cn2ncnc12 [Example 394]
4.31 nM | 6.28 µM | 2.55 nM | Cc1cc(-c2[nH]nc(-c3nc4c(s3)CN(C(=O)C[C@H](C)O)CC4)c2C(C)C)cn2ncnc12 [Example 269]
1 nM | 20 µM | 0.52 nM | Cc1cc(-c2[nH]nc(C3CCN(C(=O)CCN(C)C)CC3)c2C(C)C)cn2ncnc12 [Example 208, 3-(dimethylamino)-1-(4-(4-isopropyl-5-(8-methyl-[1,2,4]triazolo[1,5-a]pyridin-6-yl)-1H-pyrazol-3-yl)piperidin-1-yl)propan-1-one]
3.54 nM | 5.28 µM | 3.7 nM | Cc1c(C(=O)NC2CCN(C)CC2)n[nH]c1-c1cc(C)c2ncnn2c1 [compound 180]
